Test results reported in paper PMC12118597 (Science Advances, 2025).
Read-outs that look alike come from different tables or passages of the source.

Legend:
[1] = target: T1, SARS-CoV-2 NSP3 macrodomain (Mac1) (Severe acute respiratory syndrome coronavirus 2, UniProt P0DTD1); experiment: biochemical; format: binding
[2] = target: T1, SARS-CoV-2 NSP3 macrodomain (Mac1); format: binding; conditions: for 1-BDC: PanDDA background density correction; for 1-BDC (PanDDA run, DMSO background map): event 1; for Refined ligand occupancy (%): crystallographic refinement; for 2*(1-BDC) (%): occupancy estimate from PanDDA
[3] = HTRF binding curve, SARS-CoV-2 Mac1
[4] = SARS CoV-2 macrodomain HTRF assay, dose-response
[5] = crystal soak, 10 mM soak concentration, P43 crystal form
[6] = ligand-bound crystal structure obtained (TRUE)
[7] = site occupied in X-ray crystal structure
[8] = crystal soak concentration 10 mM
[9] = crystal soak concentration 10 mM, P43 crystals

| SMILES | Hill slope [1, 3] | Hill slope [1, 4] | 1-BDC [2] | Hit (PanDDA run, DMSO background map) ([2]; crystal soak 10 mM) | 1-BDC (PanDDA run, DMSO background map) ([2]; crystal soak 10 mM) | Hit (PanDDA run, overall) [2, 5] | Refined ligand occupancy (%) [2] [%] | X-ray crystal structure [2, 6] | 2*(1-BDC) (%) [2] [%] | Binding site [2, 7] | Modeling comment (ligand density) ([2]; crystal soak 10 mM, PanDDA run, overall) | Hit (PanDDA run, DMSO background map) [2, 8] | 1-BDC (PanDDA run, DMSO background map) [2, 8] | Hit (PanDDA run, overall) [2, 9] | Modeling comment (PanDDA run, overall) [2, 9] | Hit (PanDDA run, overall) ([2]; crystal soak 10 mM, P43 crystal form) | X-ray crystal structure ([2]; TRUE = crystal structure with ligand obtained) | Binding site ([2]; site of ligand in X-ray crystal structure) |
| --- | --- | --- | --- | --- | --- | --- | --- | --- | --- | --- | --- | --- | --- | --- | --- | --- | --- | --- |
| CC1CCCC(O)(CNc2ncnc3[nH]ccc23)C1 (stereo not drawn) [AVI-4307] | 1.0 | 1.0 | 0.17 | TRUE | 0.17 | TRUE | 34 | TRUE | 34 | Adenosine |  |  |  |  |  |  |  |  |
| OC1(CNc2ncnc3[nH]ccc23)CCC(F)(F)CC1 [AVI-4308] | 1.2 | 1.2 | 0.15 | TRUE | 0.15 | TRUE | 30 | TRUE | 30 | Adenosine |  |  |  |  |  |  |  |  |
| OC1(CNc2ncnc3[nH]ccc23)CCCC(C(F)(F)F)C1 (stereo not drawn) [AVI-4309] | 1.4 | 1.4 | 0.2 | TRUE | 0.21 | TRUE | 40 | TRUE | 40 | Adenosine |  |  |  |  |  |  |  |  |
| CC1(C)CCC(O)(CNc2ncnc3[nH]ccc23)CC1 [AVI-4310] | 1.3 | 1.3 |  | TRUE | 0.14 | TRUE |  |  |  |  | Weak density, not modeled |  |  |  |  |  |  |  |
| OC1(CNc2ncnc3[nH]ccc23)CCCOC1 (stereo not drawn) [AVI-4311] | 1.4 | 1.4 | 0.25 | TRUE | 0.25 | TRUE | 50 | TRUE | 50 | Adenosine |  |  |  |  |  |  |  |  |
| CC1CCC(O)(CNc2ncnc3[nH]ccc23)CC1 (stereo not drawn) [AVI-4312] | 1.2 | 1.2 | 0.22 |  |  |  | 44 | TRUE | 44 | Adenosine |  |  |  |  |  |  |  |  |
| OC1(CNc2ncnc3[nH]ccc23)COC2CC1C2 (stereo not drawn) [AVI-4313] | 1.2 | 1.2 | 0.19 |  |  |  | 38 | TRUE | 38 | Adenosine |  |  |  |  |  |  |  |  |
| OC1(CNc2ncnc3[nH]ccc23)CCOCC1 [AVI-4314] | 1.2 | 1.2 | 0.15 |  |  |  | 30 | TRUE | 30 | Adenosine |  |  |  |  |  |  |  |  |
| O=S1(=O)CCCC(O)(CNc2ncnc3[nH]ccc23)C1 (stereo not drawn) [AVI-4317] | 1.2 | 1.2 | 0.43 |  |  |  | 100 | TRUE | 86 | Adenosine |  |  |  |  |  |  |  |  |
| CN(CC1(O)CCOCC1)c1ncnc2[nH]ccc12 [AVI-4318] | 1.2 | 1.2 | 0.25 |  |  |  | 50 | TRUE | 50 | Adenosine |  |  |  |  |  |  |  |  |
| OC1(CNc2ncnc3[nH]ccc23)CCSCC1 [AVI-4319] | 1.2 | 1.2 | 0.16 |  |  |  | 32 | TRUE | 32 | Adenosine |  |  |  |  |  |  |  |  |
| OC1(CNc2ncnc3[nH]ccc23)CC2CCC1CC2 (stereo not drawn) [AVI-4320] | 1.1 | 1.1 | 0.14 |  |  |  | 28 | TRUE | 28 | Adenosine |  |  |  |  |  |  |  |  |
| OC1(CNc2ncnc3[nH]ccc23)CCCSC1 (stereo not drawn) [AVI-4322] | 1.3 | 1.3 | 0.21 |  |  |  | 42 | TRUE | 42 | Adenosine |  |  |  |  |  |  |  |  |
| Cc1c[nH]c2ncnc(NCC3(O)CCC(C)(C)CC3)c12 [AVI-4330] | 1.3 | 1.3 |  |  |  |  |  |  |  |  |  | TRUE | 0.11 | TRUE | Weak density, not modeled |  |  |  |
| Cc1c[nH]c2ncnc(NCC3(O)CCC(C)CC3)c12 (stereo not drawn) [AVI-4331] | 1.2 | 1.2 | 0.27 | TRUE | 0.27 |  | 54 | TRUE | 54 | Adenosine |  | TRUE | 0.23 | TRUE | Duplicate, not modeled | TRUE |  |  |
| CC(C)(CO)Nc1ncnc2[nH]ccc12 [AVI-5266] | 1.1 | 1.1 | 0.12 |  |  |  | 40 |  | 24 |  |  |  |  |  |  |  | TRUE | Adenosine |
| CC1(C)CCN(c2ncnc3[nH]ccc23)C(CO)C1 (stereo not drawn) [AVI-5994] | 1.2 | 1.2 | 0.23 |  |  |  | 46 | TRUE | 46 | Adenosine |  |  |  |  |  |  |  |  |
| O[C@H]1CC[C@H]2CCN(c3ncnc4[nH]ccc34)[C@H]21 [AVI-5997] | 1.2 | 1.2 | 0.29 |  |  |  | 70 | TRUE | 58 | Adenosine |  |  |  |  |  |  |  |  |
| OCC1C=CCCN1c1ncnc2[nH]ccc12 (stereo not drawn) [AVI-5998] | 1.2 | 1.2 | 0.19 |  |  |  | 38 | TRUE | 38 | Adenosine |  |  |  |  |  |  |  |  |
| OCC1CC=CCN1c1ncnc2[nH]ccc12 (stereo not drawn) [AVI-6002] | 1.3 | 1.3 | 0.16 |  |  |  | 50 | TRUE | 32 | Adenosine |  |  |  |  |  |  |  |  |
| OC1(CNc2ncnc3[nH]ccc23)CCCCC1 [AVI-6217] | 1.1 | 1.1 | 0.22 |  |  |  | 60 | TRUE | 44 | Adenosine |  |  |  |  |  |  |  |  |
| OC1CCC(O)(CNc2ncnc3[nH]ccc23)CC1 (stereo not drawn) [AVI-6220] | 1.3 | 1.3 | 0.07 |  |  |  | 14 | TRUE | 14 | Adenosine |  |  |  |  |  |  |  |  |
